Columns and labels:
[1] = test system: IL-17-induced GROα secretion from HT-29 cells; test: GROα release assay in human colorectal adenocarcinoma epithelial cell (HT-29, ELISA); format: cell-based; details: Homo sapiens, HT-29, 48 h, 10 ng/mL IL-17A, highest concentration 10 μM, read-out: Cellular assay HT29 cell/CXCL1 IC50
Summary of the method: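 IC50 values come from four-parameter fits of GROα levels, quantified by ELISA (450 nm, standard curve) in supernatants. Compounds, 4-fold serially diluted from 10 μM, were mixed 15 min with IL-17A (10 ng/mL final) before 48 h incubation with HT-29 cells at 37°C.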

[2] = target: human IL-17A / human IL-17RA (Homo sapiens (Human), UniProt Q16552); test: Human IL-17A biochemical assay (HTRF, blocking of IL-17A binding to IL-17RA); details: 0.4 nM IL-17A, 0.3 nM IL-17RA, max compound concentration 10 uM
Summary of the method: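 In this time-resolved fluorescence format, the cytokine (0.4 nM) is exposed to compound for 3 h before 0.3 nM receptor is added for 1 h, with all incubations at room temperature in HEPES buffer, pH 7.5. The 620/665 nm signal ratio gives percent inhibition, and IC50 is taken from a 4-parameter curve.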

Chain of human IL-17A / human IL-17RA (Q16552 24-155): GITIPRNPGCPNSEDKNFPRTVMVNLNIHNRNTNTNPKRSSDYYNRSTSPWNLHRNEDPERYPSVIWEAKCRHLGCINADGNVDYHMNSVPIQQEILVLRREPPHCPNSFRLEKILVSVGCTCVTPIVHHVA

Structure (SMILES) | IC50 [1] | IC50 [2]
CNC(=O)C1(N2C[C@@H](C(C)C)NC2=O)Cc2cc(NC(=O)[C@@H](NC(=O)c3ccnn3C)C3CCCCC3)cnc2C1 (stereo partly drawn) [Example 117, 3-((S)-2-cyclohexyl-2-(1-methyl-1H-pyrazole-5-carboxamido)acetamido)-6-((R)-4-isopropyl-2-oxoimidazolidin-1-yl)-N-methyl-6,7-dihydro-5H-cyclopenta[b]pyridine-6-carboxamide] | 1060 nM | 925 nM
Cc1nonc1C(=O)N[C@H](C(=O)Nc1ccc2c(c1)OC(CN1C[C@@H](C(F)(F)F)NC1=O)C2)C1CCC(F)(F)CC1 (stereo partly drawn) [Example 257, N-((1S)-1-(4,4-difluorocyclohexyl)-2-oxo-2-((2-(((S)-2-oxo-4-(trifluoromethyl)imidazolidin-1-yl)methyl)-2,3-dihydrobenzofuran-6-yl)amino)ethyl)-4-methyl-1,2,5-oxadiazole-3-carboxamide] | 2500 nM | 938 nM
Cn1nccc1C(=O)N[C@H](C(=O)Nc1ccc2c(c1)OCC(CN1CC(C(F)(F)F)NC1=O)C2)C1CCCCC1 (stereo partly drawn) [Example 291, N-((1S)-1-cyclohexyl-2-oxo-2-((3-(((S)-2-oxo-4-(trifluoromethyl)imidazolidin-1-yl)methyl)chroman-7-yl)amino)ethyl)-1-methyl-1H-pyrazole-5-carboxamide] | 1060 nM | 1550 nM
CC(C)CNC(=O)C1(N2C[C@@H](C(C)C)NC2=O)Cc2ccc(NC(=O)[C@@H](NC(=O)c3ccnn3C)C3CCCCC3)cc2C1 (stereo partly drawn) [Example 124, N-((1S)-1-cyclohexyl-2-((2-(isobutylcarbamoyl)-2-((R)-4-isopropyl-2-oxoimidazolidin-1-yl)-2,3-dihydro-1H-inden-5-yl)amino)-2-oxoethyl)-1-methyl-1H-pyrazole-5-carboxamide] | 32.5 nM | 19 nM
CC(C)[C@@H]1CN(C2(C(=O)N[C@@H](CO)C3CCCCC3)Cc3ccc(NC(=O)[C@@H](NC(=O)c4ccnn4C)C4CCCCC4)cc3C2)C(=O)N1 (stereo partly drawn) [Example 122, N-((1S)-1-cyclohexyl-2-((2-(((R)-1-cyclohexyl-2-hydroxyethyl)carbamoyl)-2-((R)-4-isopropyl-2-oxoimidazolidin-1-yl)-2,3-dihydro-1H-inden-5-yl)amino)-2-oxoethyl)-1-methyl-1H-pyrazole-5-carboxamide] | 13 nM | 10 nM
CNC(=O)C1(N2CC3(CC3)CNC2=O)Cc2ccc(NC(=O)[C@@H](NC(=O)c3cc(C#N)cn3C)C3CCCCC3)cc2C1 (stereo partly drawn) [Example 130, 4-cyano-N-((1S)-1-cyclohexyl-2-((2-(methylcarbamoyl)-2-(6-oxo-5,7-diazaspiro[2.5]octan-5-yl)-2,3-dihydro-1H-inden-5-yl)amino)-2-oxoethyl)-1-methyl-1H-pyrrole-2-carboxamide] | 59.6 nM | 19 nM
CC(C)[C@@H]1CN(C2(C(=O)N(C)C)Cc3ccc(NC(=O)[C@@H](NC(=O)c4ccnn4C)C4CCCCC4)cc3C2)C(=O)N1 (stereo partly drawn) [Example 135, N-((1S)-1-cyclohexyl-2-((2-(dimethylcarbamoyl)-2-((R)-4-isopropyl-2-oxoimidazolidin-1-yl)-2,3-dihydro-1H-inden-5-yl)amino)-2-oxoethyl)-1-methyl-1H-pyrazole-5-carboxamide] | 245 nM | 186 nM
Cc1nonc1C(=O)N[C@H](C(=O)Nc1ccc2c(c1)CC(C#N)(N1C[C@@H](C(C)C)NC1=O)C2)C(C1CC1)C1CC1 (stereo partly drawn) [Example 266, N-((2S)-1-((2-cyano-2-((R)-4-isopropyl-2-oxoimidazolidin-1-yl)-2,3-dihydro-1H-inden-5-yl)amino)-3,3-dicyclopropyl-1-oxopropan-2-yl)-4-methyl-1,2,5-oxadiazole-3-carboxamide] | 659 nM | 912 nM
CNC(=O)C1(N2C[C@@H](C(C)C)NC2=O)Cc2ccc(NC(=O)[C@@H](NC(=O)c3nonc3C)C3CCC(F)(F)CC3)cc2C1 (stereo partly drawn) [Example 116, N-((1S)-1-(4,4-difluorocyclohexyl)-2-((2-((R)-4-isopropyl-2-oxoimidazolidin-1-yl)-2-(methylcarbamoyl)-2,3-dihydro-1H-inden-5-yl)amino)-2-oxoethyl)-4-methyl-1,2,5-oxadiazole-3-carboxamide] | 415 nM | 69.1 nM
CC1CN(C2(C(N)=O)Cc3ccc(NC(=O)[C@@H](NC(=O)c4ccnn4C)C4CCCCC4)cc3C2)C(=O)N1 (stereo partly drawn) [Example 15, N-((1S)-2-((2-carbamoyl-2-(4-methyl-2-oxoimidazolidin-1-yl)-2,3-dihydro-1H-inden-5-yl)amino)-1-cyclohexyl-2-oxoethyl)-1-methyl-1H-pyrazole-5-carboxamide] | 1240 nM | 550 nM
CNC(=O)C1(N2C[C@@H](C(C)C)NC2=O)Cc2ccc(NC(=O)[C@@H](NC(=O)c3ccnn3C)C(C3CC3)C3CC3)cc2C1 (stereo partly drawn) [Example 90, N-((2S)-1,1-dicyclopropyl-3-((2-((R)-4-isopropyl-2-oxoimidazolidin-1-yl)-2-(methylcarbamoyl)-2,3-dihydro-1H-inden-5-yl)amino)-3-oxopropan-2-yl)-1-methyl-1H-pyrazole-5-carboxamide] | 48.6 nM | 37 nM
Cc1nonc1C(=O)N[C@H](C(=O)Nc1ccc2c(c1)CC(C(=O)Nc1ccccc1C(C)C)(N1C[C@@H](C(C)C)NC1=O)C2)C(C1CC1)C1CC1 (stereo partly drawn) [Example 288, N-((2S)-1,1-dicyclopropyl-3-((2-((R)-4-isopropyl-2-oxoimidazolidin-1-yl)-2-((2-isopropylphenyl)carbamoyl)-2,3-dihydro-1H-inden-5-yl)amino)-3-oxopropan-2-yl)-4-methyl-1,2,5-oxadiazole-3-carboxamide] | 408 nM | 110 nM
Cc1nonc1C(=O)N[C@H](C(=O)Nc1ccc2c(c1)CC(C(=O)Nc1cccc(F)c1)(N1C[C@@H](C(C)C)NC1=O)C2)C1CCC(F)(F)CC1 (stereo partly drawn) [Example 243, N-((1S)-1-(4,4-difluorocyclohexyl)-2-((2-((3-fluorophenyl)carbamoyl)-2-((R)-4-isopropyl-2-oxoimidazolidin-1-yl)-2,3-dihydro-1H-inden-5-yl)amino)-2-oxoethyl)-4-methyl-1,2,5-oxadiazole-3-carboxamide] | 317 nM | 290 nM
CNC(=O)C1(N2CC3(CC3)CNC2=O)Cc2ccc(NC(=O)[C@@H](NC(=O)c3cccc(C#N)c3)C3CCCCC3)cc2C1 (stereo partly drawn) [Example 153, 5-((S)-2-(3-cyanobenzamido)-2-cyclohexylacetamido)-N-methyl-2-(6-oxo-5,7-diazaspiro[2.5]octan-5-yl)-2,3-dihydro-1H-indene-2-carboxamide] | 258 nM | 95 nM
CNC(=O)C1(N2C(=O)NC3CCC2C3)Cc2ccc(NC(=O)[C@@H](NC(=O)c3ccnn3C)C3CCCCC3)cc2C1 (stereo partly drawn) [Example 144, N-((1S)-1-cyclohexyl-2-((2-(methylcarbamoyl)-2-(3-oxo-2,4-diazabicyclo[3.2.1]octan-2-yl)-2,3-dihydro-1H-inden-5-yl)amino)-2-oxoethyl)-1-methyl-1H-pyrazole-5-carboxamide] | 182 nM | 48.6 nM
COCC1(N2C[C@@H](C(C)C)NC2=O)Cc2ccc(NC(=O)[C@@H](NC(=O)c3ccnn3C)C(C3CC3)C3CC3)cc2C1 (stereo partly drawn) [Example 245, N-((2S)-1,1-dicyclopropyl-3-((2-((R)-4-isopropyl-2-oxoimidazolidin-1-yl)-2-(methoxymethyl)-2,3-dihydro-1H-inden-5-yl)amino)-3-oxopropan-2-yl)-1-methyl-1H-pyrazole-5-carboxamide] | 92.5 nM | 52.4 nM
CC1CN(C2(C(=O)O)Cc3ccc(NC(=O)[C@@H](NC(=O)c4ccnn4C)C4CCCCC4)cc3C2)C(=O)N1 (stereo partly drawn) [Example 23, 5-((S)-2-cyclohexyl-2-(1-methyl-1H-pyrazole-5-carboxamido)acetamido)-2-(4-methyl-2-oxoimidazolidin-1-yl)-2,3-dihydro-1H-indene-2-carboxylic acid] | 3660 nM | 640 nM
CNC(=O)C1(N2CC3(CC3)CNC2=O)Cc2cc3nc([C@@H](NC(=O)c4ccnn4C)C4CCCCC4)[nH]c3cc2C1 [Example 137, 2-((S)-cyclohexyl(1-methyl-1H-pyrazole-5-carboxamido)methyl)-N-methyl-6-(6-oxo-5,7-diazaspiro[2.5]octan-5-yl)-1,5,6,7-tetrahydroindeno[5,6-d]imidazole-6-carboxamide] | 1490 nM | 413 nM
CNC(=O)C1(N2C[C@@H](C(C)C)NC2=O)Cc2ccc(NC(=O)C(NC(=O)c3ccnn3C)C3C4CC5CC(C4)CC3C5)cc2C1 (stereo partly drawn) [Example 111, N-(1-((1R,3S,5R,7R)-adamantan-2-yl)-2-((2-((R)-4-isopropyl-2-oxoimidazolidin-1-yl)-2-(methylcarbamoyl)-2,3-dihydro-1H-inden-5-yl)amino)-2-oxoethyl)-1-methyl-1H-pyrazole-5-carboxamide] | 112 nM | 55 nM
Cc1nonc1C(=O)N[C@H](C(=O)Nc1ccc2c(c1)CC(c1nc3ccccc3[nH]1)(N1CC3(CC3)CNC1=O)C2)C1CCC(F)(F)CC1 (stereo partly drawn) [Example 184, N-((1S)-2-((2-(1H-benzo[d]imidazol-2-yl)-2-(6-oxo-5,7-diazaspiro[2.5]octan-5-yl)-2,3-dihydro-1H-inden-5-yl)amino)-1-(4,4-difluorocyclohexyl)-2-oxoethyl)-4-methyl-1,2,5-oxadiazole-3-carboxamide] | 57.3 nM | 151 nM

Source: patent US20250154138A1, “Small Molecule IL-17A Modulators” (BeiGene, Ltd., priority 2022, published 2025)
